# Assay results reported in patent US20250034171A1, “IMIDAZOPYRIDINE AMIDES AND RELATED COMPOUNDS FOR USE IN THE TREATMENT OF BACTERIAL INFECTIONS” (priority 2021, published 2025).
# Where two headings read alike, the source gives them in different places.
# System: Mycobacterium tuberculosis strain H37Rv
# Assay: Test 2: MIC determination against M. tuberculosis, resazurin fluorescence
# Type: cell-based
# Settings: Test 2, M. tuberculosis H37Rv; for MIC90: read-out: Bacterial activity MIC90; for IC50: read-out: Bacterial activity pMIC50 (converted)
# [1] = Mycobacterium tuberculosis, H37RV
compound,measurement,setting,value
CCc1nc2ncc(C)cn2c1C(=O)NCc1ccc(-c2nc3n(n2)CCC(F)C3)cc1 (stereo not drawn) [Compound 96],MIC90,[1],0.094 µM
same,IC50,[1],33900 pM
CCc1nc2ncc(C)cn2c1C(=O)NCc1ccc(-c2nc3n(n2)CCC(C)C3)c(F)c1 (stereo not drawn) [Compound 97],MIC90,[1],0.057 µM
same,IC50,[1],19100 pM
CCOC1CCn2nc(-c3ccc(CNC(=O)c4c(CC)nc5ncc(C)cn45)cc3)nc2C1 (stereo not drawn) [Compound 98],MIC90,[1],0.11 µM
same,IC50,[1],27500 pM
CCc1nc2nc(C)ccn2c1C(=O)NCc1ccc(-c2nc3n(n2)CCC(C(F)F)C3)cc1 (stereo not drawn) [Compound 99],MIC90,[1],0.22 µM
same,IC50,[1],70800 pM
Cc1cnc2nc(C(C)C)c(C(=O)NCc3ccc(-c4cn5c(n4)CC(C(F)(F)F)CC5)cc3)n2c1 (stereo not drawn) [Compound 100],MIC90,[1],0.2 µM
same,IC50,[1],61700 pM
O=C(NCc1cnc(-c2cn3c(n2)CC(C(F)(F)F)CC3)c(F)c1)c1c(C(F)(F)F)nc2ccccn12 (stereo not drawn) [Compound 101],MIC90,[1],3.95 µM
same,IC50,[1],2e+06 pM
CCc1nc2ncc(C)cn2c1C(=O)NCc1ccc(-c2nc3n(n2)CCC(OC)C3)c(F)c1 (stereo not drawn) [Compound 107],MIC90,[1],0.33 µM
same,IC50,[1],135000 pM
CCc1nc2ncc(C)cn2c1C(=O)NCc1ccc(-c2cn3c(n2)CC(CC)CC3)cc1 (stereo not drawn) [Compound 109],Bacterial activity pMIC50,,8.04
same,MIC90,,0.024 µM
CCc1nc2ncc(C)cn2c1C(=O)NCc1ccc(-c2nc3n(n2)CCC(CC(F)(F)F)C3)cc1 (stereo not drawn) [Compound 110],MIC90,[1],0.016 µM
same,IC50,[1],5890 pM
CCc1nc2ncc(OC)cn2c1C(=O)NCc1ccc(-c2cn3c(n2)C[C@H](C(F)(F)F)CC3)cc1 [Compound 111],MIC90,[1],0.012 µM
same,IC50,[1],4680 pM
CCc1nc2ncc(OC)cn2c1C(=O)NCc1ccc(-c2cn3c(n2)C[C@@H](C(F)(F)F)CC3)cc1 [Compound 112],MIC90,[1],0.027 µM
same,IC50,[1],8510 pM
CCc1nc2cc(F)ccn2c1C(=O)NCc1ccc(-c2cn3c(n2)C[C@@H](C(F)(F)F)CC3)cc1 [Compound 113],MIC90,[1],0.034 µM
same,IC50,[1],12900 pM
CCc1nc2cc(F)ccn2c1C(=O)NCc1ccc(-c2cn3c(n2)C[C@H](C(F)(F)F)CC3)cc1 [Compound 114],MIC90,[1],0.032 µM
same,IC50,[1],7590 pM
CCc1nc2ncc(C)cn2c1C(=O)NCc1ccc(-c2nc3n(n2)CCC(C)(COC)C3)cc1 (stereo not drawn) [Compound 115],MIC90,[1],0.096 µM
same,IC50,[1],24500 pM
CCc1nc2ncc(C)cn2c1C(=O)NCc1ccc(-c2cn3c(n2)CCC(C(F)(F)F)C3)cc1 (stereo not drawn) [Compound 116],MIC90,[1],0.0097 µM
same,IC50,[1],4570 pM
CCc1nc2ncc(C)cn2c1C(=O)NCc1ccc(-c2cn3c(n2)CC(C(F)(F)F)CC3)c(F)c1 (stereo not drawn) [Compound 117],MIC90,[1],0.077 µM
same,IC50,[1],3090 pM
CCc1nc2ncc(OC)cn2c1C(=O)NCc1ccc(-c2nc3n(n2)CCCC3)cc1 [Compound 119],Bacterial activity pMIC50,,7.72
same,MIC90,,0.052 µM
CCc1nc2ncc(C)cn2c1C(=O)NCc1ccc(-c2cn3c(n2)CC(C(F)(F)F)CC3)c(C)c1 (stereo not drawn) [Compound 121],MIC90,[1],0.035 µM
same,IC50,[1],8710 pM
CCc1nc2ncc(C)cn2c1C(=O)NCc1cnc(-c2cn3c(n2)CC(C(F)(F)F)CC3)cc1C (stereo not drawn) [Compound 122],MIC90,[1],0.21 µM
same,IC50,[1],43700 pM
CCc1nc2ncc(C)cn2c1C(=O)NCc1cnc(-c2cn3c(n2)CC(C(F)(F)F)CC3)c(C)c1 (stereo not drawn) [Compound 123],MIC90,[1],> 0.5 µM
same,IC50,[1],> 501000 pM
CCc1nc2ncc(C)cn2c1C(=O)NCc1ccc(-c2nc3n(n2)CC(C)CC3)cc1 (stereo not drawn) [Compound 125],MIC90,[1],0.04 µM
same,IC50,[1],11200 pM
CCc1nc2ccccn2c1C(=O)NCc1ccc(-c2nc3n(n2)CCC(C(C)(F)F)C3)cc1 (stereo not drawn) [Compound 133],MIC90,[1],0.051 µM
same,IC50,[1],11700 pM
CCc1nc2n(c1C(=O)NCc1ccc(-c3nc4n(n3)CCC(C(C)(F)F)C4)cc1)CCCC2 (stereo not drawn) [Compound 134],MIC90,[1],0.12 µM
same,IC50,[1],25700 pM
CCc1nc2nc(CN)ccn2c1C(=O)NCc1ccc(-c2nc3n(n2)CCC(C(F)(F)F)C3)cc1 (stereo not drawn) [Compound 138],MIC90,[1],> 0.5 µM
same,IC50,[1],> 501000 pM
CCc1nc2n(c1C(=O)NCc1ccc(-c3nc4n(n3)CC[C@@H](C(F)(F)F)C4)cc1)C[C@H](OC)CC2 [Compound 140],MIC90,[1],0.33 µM
same,IC50,[1],115000 pM
CCc1nc2n(c1C(=O)NCc1ccc(-c3nc4n(n3)CC[C@H](C(F)(F)F)C4)cc1)C[C@H](OC)CC2 [Compound 141],MIC90,[1],> 0.5 µM
same,IC50,[1],166000 pM
CCc1nc2n(c1C(=O)NCc1ccc(-c3cn4c(n3)C[C@@H](C(F)(F)F)CC4)cc1)CCCC2 [Compound 142],MIC90,[1],0.097 µM
same,IC50,[1],22900 pM
CCc1nc2ncc(C)cn2c1C(=O)NCc1ccc(-c2nc3n(n2)CCC(COC)C3)c(F)c1 (stereo not drawn) [Compound 143],MIC90,[1],0.092 µM
same,IC50,[1],33100 pM
CCc1nc2cc(F)ccn2c1C(=O)NCc1ccc(-c2nc3n(n2)CCC(C(C)(F)F)C3)cc1 (stereo not drawn) [Compound 145],MIC90,[1],0.041 µM
same,IC50,[1],11500 pM
CCc1nc2ncc(C)cn2c1C(=O)NCc1ccc(-c2cc3n(n2)CCCC3)c(C)n1 [Compound 146],MIC90,[1],0.15 µM
same,IC50,[1],42700 pM
CCc1nc2ncc(C)cn2c1C(=O)NCc1ccc(-c2cn3c(n2)CC(C(F)F)CC3)cc1 (stereo not drawn) [Compound 147],Bacterial activity pMIC50,,7.82
same,MIC90,,0.05 µM
CCc1nc2ncc(C)cn2c1C(=O)NCc1ccc(-c2nc3n(n2)CCCC3)c(C)n1 [Compound 148],MIC90,[1],> 0.5 µM
same,IC50,[1],331000 pM
CCc1nc2ncccn2c1C(=O)NCc1ccc(-c2nc3n(n2)CCC(C)C3)cc1 (stereo not drawn) [Compound 149],MIC90,[1],> 0.5 µM
same,IC50,[1],229000 pM
[2H]C([2H])([2H])c1cnc2nc(CC)c(C(=O)NCc3ccc(-c4nc5n(n4)CC[C@@H](C)C5)cc3)n2c1 [Compound 150],MIC90,[1],0.03 µM
same,IC50,[1],10000 pM
CCc1nc2ccc(C(F)(F)F)cn2c1C(=O)NCc1ccc(-c2cn3c(n2)C[C@@H](C(F)(F)F)CC3)cc1 [Compound 153],MIC90,[1],> 0.5 µM
same,IC50,[1],> 501000 pM
CCc1nc2ccc(C(F)(F)F)cn2c1C(=O)NCc1ccc(-c2cn3c(n2)C[C@H](C(F)(F)F)CC3)cc1 [Compound 154],MIC90,[1],> 0.5 µM
same,IC50,[1],> 501000 pM
CCc1nc2ncc(C(F)(F)F)cn2c1C(=O)NCc1ccc(-c2nc3n(n2)CC[C@@H](C)C3)cc1 [Compound 155],MIC90,[1],> 0.5 µM
same,IC50,[1],> 501000 pM
CCc1nc2ncccn2c1C(=O)NCc1ccc(-c2nc3n(n2)CC[C@@H](C)C3)cc1 [Compound 156],MIC90,[1],> 0.5 µM
same,IC50,[1],191000 pM
CCc1nc2ncccn2c1C(=O)NCc1ccc(-c2nc3n(n2)CC[C@H](C)C3)cc1 [Compound 157],MIC90,[1],0.41 µM
same,IC50,[1],126000 pM
CCc1nc2ncccn2c1C(=O)NCc1ccc(-c2cn3c(n2)C[C@H](C(F)(F)F)CC3)cc1 [Compound 158],MIC90,[1],0.29 µM
same,IC50,[1],75900 pM
CCc1nc2ccccn2c1C(=O)NCc1ccc(-c2nc3n(n2)CC[C@H](C)C3)cc1 [Compound 159],MIC90,[1],0.037 µM
same,IC50,[1],11000 pM
CCc1nc2n(c1C(=O)NCc1ccc(-c3nc4n(n3)CC[C@H](C)C4)cc1)CCCC2 [Compound 160],MIC90,[1],0.088 µM
same,IC50,[1],35500 pM
CCc1nc2ccccn2c1C(=O)NCc1ccc(-c2cn3c(n2)C[C@@H](C(F)(F)F)CC3)cc1 [Compound 161],MIC90,[1],0.056 µM
same,IC50,[1],18600 pM
CCc1nc2ccccn2c1C(=O)NCc1ccc(-c2nc3n(n2)CC[C@@H](C)C3)cc1 [Compound 162],MIC90,[1],0.044 µM
same,IC50,[1],11200 pM
CCc1nc2n(c1C(=O)NCc1ccc(-c3nc4n(n3)CC[C@@H](C)C4)cc1)CCCC2 [Compound 163],MIC90,[1],0.17 µM
same,IC50,[1],66100 pM
CCc1nc2n(c1C(=O)NCc1ccc(-c3cn4c(n3)C[C@H](C(F)(F)F)CC4)cc1)CCCC2 [Compound 164],MIC90,[1],0.058 µM
same,IC50,[1],17000 pM
CCc1nc2ccccn2c1C(=O)NCc1ccc(-c2cn3c(n2)C[C@H](C(F)(F)F)CC3)cc1 [Compound 165],MIC90,[1],0.055 µM
same,IC50,[1],16200 pM
CCc1nc2ncccn2c1C(=O)NCc1ccc(-c2cn3c(n2)C[C@@H](C(F)(F)F)CC3)cc1 [Compound 166],MIC90,[1],> 0.5 µM
same,IC50,[1],145000 pM
CCc1nc2n(c1C(=O)NCc1ccc(-c3nc4n(n3)CC[C@@H](C(F)(F)F)C4)cc1)C[C@@H](OC)CC2 [Compound 167],MIC90,[1],0.45 µM
same,IC50,[1],132000 pM
CCc1nc2n(c1C(=O)NCc1ccc(-c3nc4n(n3)CC[C@H](C(F)(F)F)C4)cc1)C[C@@H](OC)CC2 [Compound 168],MIC90,[1],0.5 µM
same,IC50,[1],174000 pM
O=C(NCc1ccc(-c2nc3n(n2)CC[C@H](C(F)(F)F)C3)cc1)c1c(C(F)(F)F)nc2ncccn12 [Compound 170],MIC90,[1],> 0.45 µM
same,IC50,[1],> 275000 pM
CCc1nc2ncccn2c1C(=O)NCc1ccc(-c2nc3n(n2)CC[C@@H](C(F)(F)F)C3)cc1 [Compound 171],MIC90,[1],0.18 µM
same,IC50,[1],46800 pM
CCc1nc2ncc(C(F)(F)F)cn2c1C(=O)NCc1ccc(-c2nc3n(n2)CC[C@@H](C(F)(F)F)C3)cc1 [Compound 172],MIC90,[1],> 0.46 µM
same,IC50,[1],> 295000 pM
CCc1nc2ncc(C(F)(F)F)cn2c1C(=O)NCc1ccc(-c2nc3n(n2)CC[C@H](C(F)(F)F)C3)cc1 [Compound 173],Bacterial activity pMIC50,,<6.49
same,MIC90,,>0.47 µM
CCc1nc2ncc(Cl)cn2c1C(=O)NCc1ccc(-c2cn3c(n2)C[C@H](C(F)(F)F)CC3)cc1 [Compound 175],MIC90,[1],0.059 µM
same,IC50,[1],21900 pM
CCc1nc2ncc(Cl)cn2c1C(=O)NCc1ccc(-c2cn3c(n2)C[C@@H](C(F)(F)F)CC3)cc1 [Compound 176],MIC90,[1],0.039 µM
same,IC50,[1],12600 pM
CCc1nc2ncccn2c1C(=O)NCc1ccc(-c2nc3n(n2)C[C@@H](C(F)(F)F)CC3)cc1 [Compound 181],MIC90,[1],0.22 µM
same,IC50,[1],57500 pM
CCc1nc2ncccn2c1C(=O)NCc1ccc(-c2nc3n(n2)C[C@H](C(F)(F)F)CC3)cc1 [Compound 182],MIC90,[1],0.2 µM
same,IC50,[1],52500 pM
CCc1nc2n(c1C(=O)NCc1ccc(-c3cn4c(n3)CC(C(F)(F)F)CC4)c(F)c1)CCCC2 (stereo not drawn) [Compound 185],MIC90,[1],0.034 µM
same,IC50,[1],9770 pM
CCc1nc2ncccn2c1C(=O)NCc1ccc(-c2cc3n(n2)CCCC3)cc1 [Compound 187],MIC90,[1],> 0.5 µM
same,IC50,[1],151000 pM
